Experimental findings from article PMC6857474, “Differential Effects of the Mitochondria-Active Tetrapeptide SS-31 (D-Arg-dimethylTyr-Lys-Phe-NH2) and Its Peptidase-Targeted Prodrugs in Experimental Acute Kidney Injury” (Frontiers in Pharmacology, 2019) are described below.

In data set [1] the test system is BALB/c male mice. Description: Aristolochic acid (AA)-induced acute tubulo-interstitial kidney injury model. It is filed as in vivo, mouse. The settings on record: AA 1 x 5 mg/kg i.p. alone; control group 44 ± 5. As for the experimental part:
(§1) All experiments were conducted in accordance with federal and local regulations, according to a protocol approved by the animal ethics committee of the Canton de Vaud, Switzerland (No. 2655.0). Kidney injury was induced by intraperitoneal (i.p.) injection of AA (Sigma-Aldrich, 1 × 5 mg/kg) or ADR (Adriblastin, Pfizer, 1 × 10 mg/kg) in 10-week-old BALB/c male mice (n = 5–7 mice/experimental group). SS-31 analogs were diluted in 0.9% NaCl and administered i.p. once a day, starting 1 day before the disease-inducing drugs (day −1) at a dose of 3 mg/kg and then daily until day 6. The animals were weighted at days 0, 3, and 6, and sacrificed at day 7. The level of protein in urine was semi-quantitatively assessed using Albustix reagent strips (Bayer, Basel, Switzerland). At the end of the treatment period, the mice were sacrificed to remove both kidneys. The kidneys were spliced in four equal fragments containing the cortex and medulla. One fragment was immediately snap-frozen in liquid nitrogen for real-time quantitative polymerase chain reaction (qRT-PCR) and Western blot experiments, one fragment was included in OCT (Tissue-Tek, VWR International, Dietikon, Switzerland) and frozen for histoenzymography, one fragment was frozen at −80°C and used for pharmacokinetic (PK) measurements, and one fragment was fixed in 4% paraformaldehyde and included in paraffin for histology. […]

In data set [2] the test system is BALB/c male mice. Description: Adriamycin (ADR)-induced glomerular damage model. The conditions noted are these: ADR 1 x 10 mg/kg i.p. alone, at the time of sacrifice. It counts as in vivo, mouse. As for the experimental part:
as §1

Data set [3] has as its target T1, γ-glutamyltranspeptidase (γ-GT) (Rattus norvegicus, UniProt P07314).
T1 construct: These cells express high levels of APA and γ-GT activities and can be used to measure kinetics in living cells; endogenous in cells; host or cells: EC219 rat brain-derived endothelial cells
Description: γ-GT enzymatic activity in intact living EC219 cells (γ-Glu-AMC substrate). The conditions noted are these: 40 µM γ-Glu-AMC. It counts as cell-based. The method, then:
The preparation and characterization of rat brain-derived EC219 endothelial cells were previously described ([Juillerat-Jeanneret et al., 1992]). These cells express high levels of APA and γ-GT activities and can be used to measure kinetics in living cells as APA and γ-GT-positive representative cell models. The cells were grown in Dulbecco’s modified Eagle medium (DMEM) containing 1 g/L glucose, 10% heat-inactivated fetal calf serum (FCS), and antibiotics on uncoated cell culture plastic plates and flasks. […]
Stock solutions of α-Glu-AMC (APA) and γ-Glu-AMC and Gly-Gly (γ-GT) substrates, all from Bachem, were prepared at 10 mM in DMSO. […] The increase in absorbance was measured at 37°C in a thermostated fluorescence multiwell-plate reader (CytoFluor Series 4000; PerSeptive Biosystems, MA, USA) at λex = 360 nm/λem = 460 nm using the linear portion of the curves. The kinetics values were then graphically determined or according to Wu and colleagues ([Wu et al., 2011]).
(A) Intact living EC219 cells were exposed to increasing concentrations of either amastatin (left panel) or acivicin (right panel), two well-characterized enzymatic activity inhibitors of APA or γ-GT, respectively. The activities of the enzymes aminopeptidase A (APA) or γ-glutamyltranspeptidase (γ-GT) were determined using 40 µM of the substrates (S), α-Glu-AMC or γ-Glu-AMC, respectively. […] Data were analyzed graphically. […]

The target of data set [4] is T2, γ-glutamyltranspeptidase (γ-GT) (Mus musculus, UniProt Q60928).
T2 construct: from tissue; host or cells: frozen kidney sections of ADR-treated BALB/c male mice
T2 sequence (Q60928 whole entry): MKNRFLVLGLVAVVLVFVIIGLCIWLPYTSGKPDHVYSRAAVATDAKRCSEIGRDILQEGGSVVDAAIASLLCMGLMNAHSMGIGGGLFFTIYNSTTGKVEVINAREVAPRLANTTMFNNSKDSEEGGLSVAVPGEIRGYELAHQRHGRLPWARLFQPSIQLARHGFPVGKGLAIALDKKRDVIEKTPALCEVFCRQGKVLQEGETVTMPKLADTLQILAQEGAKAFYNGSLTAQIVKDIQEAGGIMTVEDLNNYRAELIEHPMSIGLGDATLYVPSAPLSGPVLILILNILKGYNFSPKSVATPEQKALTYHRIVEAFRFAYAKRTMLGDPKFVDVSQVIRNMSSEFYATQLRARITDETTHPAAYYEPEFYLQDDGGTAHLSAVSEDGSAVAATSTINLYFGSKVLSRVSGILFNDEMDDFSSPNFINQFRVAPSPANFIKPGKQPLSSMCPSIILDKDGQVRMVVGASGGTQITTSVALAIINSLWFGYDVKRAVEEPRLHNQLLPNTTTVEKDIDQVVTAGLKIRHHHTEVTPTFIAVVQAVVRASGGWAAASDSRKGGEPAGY
Briefly: Histoenzymography of γ-GT activity on frozen kidney sections of ADR-treated mice. The settings on record: kidney sections of ADR-exposed mice, γ-Glu-βNA substrate, 37°C. It counts as biochemical. As for the experimental part: (§2) Enzymatic activities were evaluated by histoenzymography on OCT-embedded frozen kidneys sections (7 µm), as previously described ([Juillerat-Jeanneret et al., 1992]; [Juillerat-Jeanneret et al., 2000]; [Juillerat-Jeanneret et al., 2003]). Briefly, slides were fixed for 5 min in cold (−20°C) acetone, air dried at room temperature, rehydrated for 5 min in 0.9% NaCl, and exposed to the α-Glu-4-methoxy-β-naphtylamide (APA; Bachem) or γ-Glu-4-methoxy-β-naphtylamide (γ-GT; Serva) substrates and Fast Blue B (Sigma-Aldrich) at 37°C for 15 to 60 min until a red coloration was visible. The slides were washed in distilled water, counterstained with hematoxylin (Mayer) for 1 min, rinsed under tap water and then with Scott solution for 1 min, and mounted in Aquamount (Immu-mount; Thermo Shandon, Pittsburgh, PA, USA) and analyzed with a Nikon Eclipse E800 microscope and digital DXM1200 camera using ACT-1 software.
(§3) Sequential sections (7 µm) of frozen OCT-embedded kidneys of adriamycin (ADR)-treated mice were exposed at 37°C to β-methoxynaphthylamide (β-NA) specific substrates of aminopeptidase A (α-Glu-βNA, upper panels) or γ-glutamyltranspeptidase (γ-Glu-βNA, lower panels) and Fast Blue B, in the absence (none) or the presence of SS-31, α-Glu-SS-31 or γ-Glu-SS-31. The sections were then counterstained with light hematoxylin reagent. The enzymatic activity is visualized as a red precipitate. […]

Data set [5] addresses T3, aminopeptidase A (APA) (Mus musculus, UniProt P16406).
T3 construct: from tissue; host or cells: frozen kidney sections of ADR-treated BALB/c male mice
T3 sequence (P16406 1-945): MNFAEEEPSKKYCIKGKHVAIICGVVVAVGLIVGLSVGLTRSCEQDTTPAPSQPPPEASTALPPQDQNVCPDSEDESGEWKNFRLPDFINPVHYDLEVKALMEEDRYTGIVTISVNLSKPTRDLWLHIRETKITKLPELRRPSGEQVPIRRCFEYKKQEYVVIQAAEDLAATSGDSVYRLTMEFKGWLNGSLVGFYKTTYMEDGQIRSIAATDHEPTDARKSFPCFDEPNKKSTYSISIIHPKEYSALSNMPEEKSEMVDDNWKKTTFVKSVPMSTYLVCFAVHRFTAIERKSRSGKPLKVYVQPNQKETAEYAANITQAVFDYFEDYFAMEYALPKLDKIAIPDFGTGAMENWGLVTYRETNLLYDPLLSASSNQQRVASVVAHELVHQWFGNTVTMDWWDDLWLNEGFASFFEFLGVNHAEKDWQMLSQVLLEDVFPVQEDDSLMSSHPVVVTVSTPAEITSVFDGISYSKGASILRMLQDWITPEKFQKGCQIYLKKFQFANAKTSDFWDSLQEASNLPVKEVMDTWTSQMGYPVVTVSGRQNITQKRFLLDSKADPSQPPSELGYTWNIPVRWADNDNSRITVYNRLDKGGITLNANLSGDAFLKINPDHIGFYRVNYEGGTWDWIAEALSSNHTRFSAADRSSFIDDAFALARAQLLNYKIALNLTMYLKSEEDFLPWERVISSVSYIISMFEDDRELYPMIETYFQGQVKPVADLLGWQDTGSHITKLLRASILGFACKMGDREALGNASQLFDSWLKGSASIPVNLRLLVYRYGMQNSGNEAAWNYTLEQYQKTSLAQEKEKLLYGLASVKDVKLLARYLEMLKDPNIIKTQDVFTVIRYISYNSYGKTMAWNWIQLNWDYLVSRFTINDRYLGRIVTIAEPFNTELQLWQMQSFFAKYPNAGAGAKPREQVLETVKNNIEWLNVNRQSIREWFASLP
Briefly: Histoenzymography of APA activity on frozen kidney sections of ADR-treated mice. The settings on record: kidney sections of ADR-exposed mice, α-Glu-βNA substrate, 37°C. It counts as biochemical. As for the experimental part:
as §2, §3

T1 sequence (P07314 whole entry): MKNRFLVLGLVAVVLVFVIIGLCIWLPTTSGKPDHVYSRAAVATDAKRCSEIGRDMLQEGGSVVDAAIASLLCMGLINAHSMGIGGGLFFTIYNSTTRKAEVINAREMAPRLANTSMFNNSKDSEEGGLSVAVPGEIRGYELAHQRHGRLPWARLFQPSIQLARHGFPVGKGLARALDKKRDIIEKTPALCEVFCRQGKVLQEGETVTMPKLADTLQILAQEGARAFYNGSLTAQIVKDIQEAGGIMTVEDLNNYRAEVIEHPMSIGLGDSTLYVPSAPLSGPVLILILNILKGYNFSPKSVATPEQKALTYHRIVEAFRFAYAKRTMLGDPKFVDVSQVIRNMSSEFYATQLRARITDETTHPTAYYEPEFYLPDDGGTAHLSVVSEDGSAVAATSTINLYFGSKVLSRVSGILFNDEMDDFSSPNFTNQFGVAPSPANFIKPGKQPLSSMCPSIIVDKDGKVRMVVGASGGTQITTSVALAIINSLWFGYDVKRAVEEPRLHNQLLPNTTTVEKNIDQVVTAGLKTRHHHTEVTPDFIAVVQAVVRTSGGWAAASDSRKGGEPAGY

`COc1cccc2c1cc([N+](=O)[O-])c1c(C(=O)O)cc3c(c12)OCO3` [AA, aristolochic acid] registered a mean creatinine in data set [1] of 258 ± 92 µmol/L.
For `COc1cccc2c1C(=O)c1c(O)c3c(c(O)c1C2=O)C[C@@](O)(C(=O)CO)C[C@@H]3O[C@H]1C[C@H](N)[C@H](O)[C@H](C)O1` [ADR, adriamycin], the mean creatinine in data set [2] is 33 ± 5 µmol/L.
`N[C@H](C(=O)O)[C@@H]1CC(Cl)=NO1` [acivicin] came in with an IC50 in data set [3] of 48 µM.
With “H-γ-Glu-D-Arg-DMT-Lys-Phe-NH 2 .2TFA [γ-Glu-SS-31]”, the “enzymatic activity of γ-GT (histoenzymography)” value in data set [4] is “modified neither”. Moreover, in data set [5], the “enzymatic activity of APA (histoenzymography)” value was “not”.
